Reference: PMC4685510, “A Cell Biologist’s Field Guide to Aurora Kinase Inhibitors” (Frontiers in Oncology, 2015)

Key:
Experiment in all cases: biochemical
Format in all cases: biochemical
[1] = molecular target: 363 human kinases (including Aurora A/B/C) (Homo sapiens, UniProt Q02779); details: MLK2/MAP3K10; for remaining activity at 0.1 µM: 100 nM; for remaining activity at 0.1 µM / remaining activity at 0.5 µM: read-out: % Enzyme Activity (relative to DMSO controls)
Excerpt: (§1) However, the Aurora A/B selectivity ratios derived from our in vitro and in vivo data can be compared to prioritize inhibitors.

[2] = molecular target: 363 human kinases (including Aurora A/B/C) (Homo sapiens, UniProt P54764); details: EPHA4, [ATP] 30 µM; for remaining activity at 0.1 µM: 100 nM; for remaining activity at 0.1 µM / remaining activity at 0.5 µM: read-out: % Enzyme Activity (relative to DMSO controls)
Excerpt: as §1

[3] = molecular target: 363 human kinases (including Aurora A/B/C) (Homo sapiens, UniProt Q5VT25); details: MRCKa/CDC42BPA; for remaining activity at 0.1 µM: 100 nM; for remaining activity at 0.1 µM / remaining activity at 0.5 µM: read-out: % Enzyme Activity (relative to DMSO controls)
Excerpt: as §1

[4] = molecular target: T1, 363 human kinases (including Aurora A/B/C) (Homo sapiens, UniProt O00444); details: PLK4/SAK; for remaining activity at 0.1 µM: 100 nM; for remaining activity at 0.1 µM / remaining activity at 0.5 µM: read-out: % Enzyme Activity (relative to DMSO controls)
T1 sequence (O00444 1-970): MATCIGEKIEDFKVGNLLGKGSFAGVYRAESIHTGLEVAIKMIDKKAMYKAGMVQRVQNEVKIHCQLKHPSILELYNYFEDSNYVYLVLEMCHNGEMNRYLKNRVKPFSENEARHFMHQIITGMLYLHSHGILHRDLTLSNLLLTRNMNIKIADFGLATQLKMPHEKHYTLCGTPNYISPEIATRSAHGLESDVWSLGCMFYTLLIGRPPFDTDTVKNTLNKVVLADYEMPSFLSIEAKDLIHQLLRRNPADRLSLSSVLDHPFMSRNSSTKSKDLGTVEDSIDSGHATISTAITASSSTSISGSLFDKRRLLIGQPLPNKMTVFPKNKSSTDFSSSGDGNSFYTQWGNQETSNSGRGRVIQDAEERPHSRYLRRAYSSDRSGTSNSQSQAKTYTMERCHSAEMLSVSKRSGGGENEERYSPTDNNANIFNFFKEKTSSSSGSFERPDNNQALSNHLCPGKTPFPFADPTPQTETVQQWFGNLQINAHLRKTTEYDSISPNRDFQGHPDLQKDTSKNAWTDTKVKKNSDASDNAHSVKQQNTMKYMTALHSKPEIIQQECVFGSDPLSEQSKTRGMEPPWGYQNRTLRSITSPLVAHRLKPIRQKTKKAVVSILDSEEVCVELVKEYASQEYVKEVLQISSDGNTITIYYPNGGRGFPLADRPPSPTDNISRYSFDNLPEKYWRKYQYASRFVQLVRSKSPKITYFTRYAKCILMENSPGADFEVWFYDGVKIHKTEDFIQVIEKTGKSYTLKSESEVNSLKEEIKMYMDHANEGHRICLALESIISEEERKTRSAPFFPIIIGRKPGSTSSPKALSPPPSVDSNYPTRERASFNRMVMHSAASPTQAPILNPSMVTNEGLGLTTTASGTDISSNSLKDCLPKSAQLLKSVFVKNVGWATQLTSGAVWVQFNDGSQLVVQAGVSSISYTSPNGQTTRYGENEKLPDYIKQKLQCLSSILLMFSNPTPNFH
Excerpt: as §1

[5] = molecular target: 363 human kinases (including Aurora A/B/C) (Homo sapiens, UniProt Q9BYT3); details: STK33; for remaining activity at 0.1 µM: 100 nM; for remaining activity at 0.1 µM / remaining activity at 0.5 µM: read-out: % Enzyme Activity (relative to DMSO controls)
Excerpt: as §1

[6] = molecular target: 363 human kinases (including Aurora A/B/C) (Homo sapiens, UniProt Q16513); details: PKN2/PRK2; for remaining activity at 0.1 µM: 100 nM; for remaining activity at 0.1 µM / remaining activity at 0.5 µM: read-out: % Enzyme Activity (relative to DMSO controls)
Excerpt: as §1

[7] = molecular target: T2, 363 human kinases (including Aurora A/B/C) (Homo sapiens, UniProt Q9UEE5); details: DRAK1/STK17A, [ATP] 30 µM; for remaining activity at 0.1 µM: 100 nM; for remaining activity at 0.1 µM / remaining activity at 0.5 µM: read-out: % Enzyme Activity (relative to DMSO controls)
T2 sequence (Q9UEE5 1-414): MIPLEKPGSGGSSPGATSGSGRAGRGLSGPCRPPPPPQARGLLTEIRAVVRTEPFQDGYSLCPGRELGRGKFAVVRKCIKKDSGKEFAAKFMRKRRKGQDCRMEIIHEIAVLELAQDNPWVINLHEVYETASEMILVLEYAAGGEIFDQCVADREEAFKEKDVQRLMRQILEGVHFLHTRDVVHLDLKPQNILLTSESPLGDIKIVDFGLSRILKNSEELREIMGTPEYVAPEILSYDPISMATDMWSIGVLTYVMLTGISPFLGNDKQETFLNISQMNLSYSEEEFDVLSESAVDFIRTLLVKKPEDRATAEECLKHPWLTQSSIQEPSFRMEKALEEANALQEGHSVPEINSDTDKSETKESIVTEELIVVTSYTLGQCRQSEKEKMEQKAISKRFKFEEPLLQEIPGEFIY
Excerpt: as §1

[8] = molecular target: 363 human kinases (including Aurora A/B/C) (Homo sapiens, UniProt P41240); details: CSK, [ATP] 15 µM; for remaining activity at 0.1 µM: 100 nM; for remaining activity at 0.1 µM / remaining activity at 0.5 µM: read-out: % Enzyme Activity (relative to DMSO controls)
Excerpt: as §1

[9] = molecular target: 363 human kinases (including Aurora A/B/C) (Homo sapiens, UniProt P41279); details: COT1/MAP3K8, [ATP] 50 µM; for remaining activity at 0.1 µM: 100 nM; for remaining activity at 0.1 µM / remaining activity at 0.5 µM: read-out: % Enzyme Activity (relative to DMSO controls)
Excerpt: as §1

[10] = molecular target: 363 human kinases (including Aurora A/B/C) (Homo sapiens, UniProt Q04759); details: PKCtheta; for remaining activity at 0.1 µM: 100 nM; for remaining activity at 0.1 µM / remaining activity at 0.5 µM: read-out: % Enzyme Activity (relative to DMSO controls)
Excerpt: as §1

[11] = molecular target: 363 human kinases (including Aurora A/B/C) (Homo sapiens, UniProt O14578); details: STK21/CIT; for remaining activity at 0.1 µM: 100 nM; for remaining activity at 0.1 µM / remaining activity at 0.5 µM: read-out: % Enzyme Activity (relative to DMSO controls)
363 human kinases (including Aurora A/B/C) (Homo sapiens, UniProt O14578), sequence (O14578 whole entry): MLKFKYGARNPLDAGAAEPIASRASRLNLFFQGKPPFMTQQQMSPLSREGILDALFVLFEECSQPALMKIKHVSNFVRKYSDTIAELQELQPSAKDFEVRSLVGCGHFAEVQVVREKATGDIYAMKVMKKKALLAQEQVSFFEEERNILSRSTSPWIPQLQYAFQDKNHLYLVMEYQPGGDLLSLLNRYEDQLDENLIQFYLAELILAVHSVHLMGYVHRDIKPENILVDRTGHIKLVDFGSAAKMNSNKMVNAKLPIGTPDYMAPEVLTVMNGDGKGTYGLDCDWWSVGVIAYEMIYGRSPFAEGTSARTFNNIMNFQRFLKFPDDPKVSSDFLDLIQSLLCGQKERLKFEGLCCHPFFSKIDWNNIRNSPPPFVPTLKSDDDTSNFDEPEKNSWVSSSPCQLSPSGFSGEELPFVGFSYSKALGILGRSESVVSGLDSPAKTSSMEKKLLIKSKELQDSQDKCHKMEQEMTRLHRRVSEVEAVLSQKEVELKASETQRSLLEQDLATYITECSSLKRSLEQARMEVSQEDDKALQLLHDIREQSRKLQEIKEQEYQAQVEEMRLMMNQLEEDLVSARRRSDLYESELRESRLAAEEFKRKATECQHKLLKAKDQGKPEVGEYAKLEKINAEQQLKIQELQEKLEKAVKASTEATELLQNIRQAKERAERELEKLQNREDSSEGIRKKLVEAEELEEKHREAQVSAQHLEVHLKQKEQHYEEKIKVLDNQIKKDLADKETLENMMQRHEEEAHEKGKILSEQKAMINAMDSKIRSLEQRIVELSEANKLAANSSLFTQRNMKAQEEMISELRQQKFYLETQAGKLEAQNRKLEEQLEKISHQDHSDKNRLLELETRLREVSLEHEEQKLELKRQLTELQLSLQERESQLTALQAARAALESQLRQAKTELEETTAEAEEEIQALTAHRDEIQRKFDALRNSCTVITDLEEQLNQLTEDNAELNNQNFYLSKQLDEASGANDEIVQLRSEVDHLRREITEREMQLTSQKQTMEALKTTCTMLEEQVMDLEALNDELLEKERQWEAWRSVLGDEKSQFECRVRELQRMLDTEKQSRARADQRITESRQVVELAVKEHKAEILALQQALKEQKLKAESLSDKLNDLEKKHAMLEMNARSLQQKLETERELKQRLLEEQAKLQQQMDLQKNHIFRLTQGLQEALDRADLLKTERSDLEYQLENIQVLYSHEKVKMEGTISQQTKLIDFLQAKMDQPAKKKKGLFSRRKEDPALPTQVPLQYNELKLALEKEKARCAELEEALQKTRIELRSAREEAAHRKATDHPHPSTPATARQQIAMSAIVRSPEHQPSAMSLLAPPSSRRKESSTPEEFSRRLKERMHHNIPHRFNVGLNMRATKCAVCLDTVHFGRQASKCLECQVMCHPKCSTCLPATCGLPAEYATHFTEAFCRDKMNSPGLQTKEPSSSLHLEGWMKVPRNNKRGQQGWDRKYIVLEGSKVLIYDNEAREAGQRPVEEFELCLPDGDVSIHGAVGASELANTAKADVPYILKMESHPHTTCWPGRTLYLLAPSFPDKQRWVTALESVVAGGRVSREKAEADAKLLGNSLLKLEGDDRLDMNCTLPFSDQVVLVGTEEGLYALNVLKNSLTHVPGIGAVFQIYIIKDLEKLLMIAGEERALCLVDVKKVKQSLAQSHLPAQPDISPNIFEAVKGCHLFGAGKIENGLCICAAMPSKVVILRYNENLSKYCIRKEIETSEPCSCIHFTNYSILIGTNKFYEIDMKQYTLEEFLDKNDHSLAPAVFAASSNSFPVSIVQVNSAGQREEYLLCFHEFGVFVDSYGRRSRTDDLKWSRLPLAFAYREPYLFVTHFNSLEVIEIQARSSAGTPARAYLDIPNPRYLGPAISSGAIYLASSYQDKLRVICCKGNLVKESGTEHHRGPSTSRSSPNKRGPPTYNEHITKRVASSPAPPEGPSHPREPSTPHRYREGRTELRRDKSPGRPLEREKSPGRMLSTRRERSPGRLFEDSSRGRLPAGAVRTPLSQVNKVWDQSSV
Excerpt: as §1

363 human kinases (including Aurora A/B/C) (Homo sapiens, UniProt P54764), sequence (P54764 20-986): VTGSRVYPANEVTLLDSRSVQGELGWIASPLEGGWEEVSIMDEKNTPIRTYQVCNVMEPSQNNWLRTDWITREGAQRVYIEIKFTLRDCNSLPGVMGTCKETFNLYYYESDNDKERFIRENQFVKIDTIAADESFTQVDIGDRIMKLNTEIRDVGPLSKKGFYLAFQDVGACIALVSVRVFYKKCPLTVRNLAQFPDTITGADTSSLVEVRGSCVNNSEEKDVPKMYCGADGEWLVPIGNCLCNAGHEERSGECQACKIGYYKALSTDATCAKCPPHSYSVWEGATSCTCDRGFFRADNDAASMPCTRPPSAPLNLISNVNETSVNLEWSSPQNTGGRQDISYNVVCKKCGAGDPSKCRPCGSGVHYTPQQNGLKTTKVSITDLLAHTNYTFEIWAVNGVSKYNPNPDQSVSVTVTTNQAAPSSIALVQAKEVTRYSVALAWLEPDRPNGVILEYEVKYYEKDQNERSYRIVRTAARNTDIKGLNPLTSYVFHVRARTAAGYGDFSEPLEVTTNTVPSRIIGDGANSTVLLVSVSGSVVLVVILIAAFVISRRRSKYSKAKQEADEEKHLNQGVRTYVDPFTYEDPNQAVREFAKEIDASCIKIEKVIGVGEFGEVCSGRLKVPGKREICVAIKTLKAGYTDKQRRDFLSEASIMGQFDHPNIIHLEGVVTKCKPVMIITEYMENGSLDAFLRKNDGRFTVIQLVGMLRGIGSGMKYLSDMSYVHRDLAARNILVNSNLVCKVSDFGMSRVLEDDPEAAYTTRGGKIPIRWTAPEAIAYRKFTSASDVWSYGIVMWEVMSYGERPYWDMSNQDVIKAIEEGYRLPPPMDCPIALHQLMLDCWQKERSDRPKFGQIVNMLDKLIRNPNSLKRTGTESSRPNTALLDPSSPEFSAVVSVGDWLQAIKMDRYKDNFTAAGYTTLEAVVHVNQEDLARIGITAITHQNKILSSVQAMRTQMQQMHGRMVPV
363 human kinases (including Aurora A/B/C) (Homo sapiens, UniProt Q5VT25), sequence (Q5VT25 whole entry): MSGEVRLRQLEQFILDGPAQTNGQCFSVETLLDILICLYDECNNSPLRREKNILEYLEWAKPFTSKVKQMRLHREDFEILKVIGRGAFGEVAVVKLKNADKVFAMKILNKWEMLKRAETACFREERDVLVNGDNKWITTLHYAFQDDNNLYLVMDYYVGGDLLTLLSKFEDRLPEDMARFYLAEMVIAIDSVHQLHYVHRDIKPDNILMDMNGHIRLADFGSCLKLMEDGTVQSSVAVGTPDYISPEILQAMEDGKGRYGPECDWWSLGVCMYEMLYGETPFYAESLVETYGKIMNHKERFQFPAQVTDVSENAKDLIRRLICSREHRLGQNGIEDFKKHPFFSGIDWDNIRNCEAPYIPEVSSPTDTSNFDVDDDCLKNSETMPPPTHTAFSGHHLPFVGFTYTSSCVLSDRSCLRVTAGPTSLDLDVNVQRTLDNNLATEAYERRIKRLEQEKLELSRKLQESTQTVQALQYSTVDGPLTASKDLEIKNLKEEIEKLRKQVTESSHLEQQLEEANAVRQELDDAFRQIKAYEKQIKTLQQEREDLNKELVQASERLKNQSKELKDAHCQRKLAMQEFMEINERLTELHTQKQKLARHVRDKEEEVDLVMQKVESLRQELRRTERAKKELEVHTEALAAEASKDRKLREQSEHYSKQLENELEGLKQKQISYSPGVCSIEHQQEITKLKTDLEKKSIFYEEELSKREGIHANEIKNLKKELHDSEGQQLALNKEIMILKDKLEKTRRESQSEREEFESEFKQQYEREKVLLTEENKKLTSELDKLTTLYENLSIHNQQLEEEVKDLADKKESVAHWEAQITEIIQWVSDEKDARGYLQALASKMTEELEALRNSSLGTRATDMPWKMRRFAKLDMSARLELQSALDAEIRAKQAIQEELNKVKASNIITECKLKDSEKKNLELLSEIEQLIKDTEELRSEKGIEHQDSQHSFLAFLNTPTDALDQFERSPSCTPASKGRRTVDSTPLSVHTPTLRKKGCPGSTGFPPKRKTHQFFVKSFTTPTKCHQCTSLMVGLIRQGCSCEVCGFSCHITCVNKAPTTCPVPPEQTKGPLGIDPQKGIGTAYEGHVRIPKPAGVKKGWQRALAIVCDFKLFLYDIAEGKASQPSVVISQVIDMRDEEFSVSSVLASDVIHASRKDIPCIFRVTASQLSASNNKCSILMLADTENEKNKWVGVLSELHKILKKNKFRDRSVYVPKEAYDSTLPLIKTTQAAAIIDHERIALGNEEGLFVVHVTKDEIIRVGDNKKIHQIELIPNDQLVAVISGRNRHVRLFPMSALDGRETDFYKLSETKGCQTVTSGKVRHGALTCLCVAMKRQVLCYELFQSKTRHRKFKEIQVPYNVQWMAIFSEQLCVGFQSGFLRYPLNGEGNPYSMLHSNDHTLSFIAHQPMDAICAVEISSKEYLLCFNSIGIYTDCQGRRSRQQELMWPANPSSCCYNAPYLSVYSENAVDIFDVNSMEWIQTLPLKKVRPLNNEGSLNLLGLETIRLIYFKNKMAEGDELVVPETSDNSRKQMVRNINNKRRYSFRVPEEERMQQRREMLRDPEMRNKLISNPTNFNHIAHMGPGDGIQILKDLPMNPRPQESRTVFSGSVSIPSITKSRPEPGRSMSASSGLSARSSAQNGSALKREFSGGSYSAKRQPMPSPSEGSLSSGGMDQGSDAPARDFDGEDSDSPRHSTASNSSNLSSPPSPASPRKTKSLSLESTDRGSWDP

Compound | remaining activity at 0.1 µM [1] [%] | remaining activity at 0.1 µM [2] [%] | remaining activity at 0.1 µM [3] [%] | remaining activity at 0.1 µM [4] [%] | remaining activity at 0.1 µM [5] [%] | remaining activity at 0.1 µM [6] [%] | remaining activity at 0.1 µM [7] [%] | remaining activity at 0.1 µM [8] [%] | remaining activity at 0.1 µM [9] [%] | remaining activity at 0.1 µM [10] [%] | remaining activity at 0.1 µM [11] [%] | remaining activity at 0.5 µM ([1]; 500 nM) [%] | remaining activity at 0.5 µM ([2]; 500 nM) [%] | remaining activity at 0.5 µM ([3]; 500 nM) [%] | remaining activity at 0.5 µM ([4]; 500 nM) [%] | remaining activity at 0.5 µM ([5]; 500 nM) [%] | remaining activity at 0.5 µM ([6]; 500 nM) [%] | remaining activity at 0.5 µM ([7]; 500 nM) [%] | remaining activity at 0.5 µM ([8]; 500 nM) [%] | remaining activity at 0.5 µM ([9]; 500 nM) [%] | other results
CCn1cc(-c2ccnc3[nH]c(-c4cccc(CN(C)C)c4)cc23)c(-c2ccc(NC(=O)N(C)C)cc2)n1 [GSK1070916] | 75.6 | 100 | 108 | 115 | 111 | 115 | 109 | 99.8 | 87.8 | 92.7 | 100 | – | – | – | – | – | – | – | – | – | –
O=C(O)[C@]1(Cc2cccc(Nc3nccs3)n2)CC[C@@H](Oc2cccc(Cl)c2F)CC1 [MK-5108] | 23.5 | 50.2 | 93.7 | 21.9 | 79.3 | 108 | 105 | 93.9 | 101 | 91.8 | 115 | 5.55 | 21.2 | 103 | 9.25 | 70.5 | 108 | 102 | 67.9 | 91 | remaining activity at 0.5 µM ([10]; 500 nM): 104%; remaining activity at 0.5 µM ([11]; 500 nM): 102%
O=C(c1cccc(Cl)c1F)N1CCN(Cc2cccc(Nc3nccs3)n2)CC1 [MK-8745] | – | – | – | – | – | – | – | – | – | – | – | 79.9 | 87.2 | 104 | 71.4 | 110 | 104 | 104 | 95.8 | 91.3 | % Enzyme Activity (relative to DMSO controls) ([1]; 500 nM): 79.50%; % Enzyme Activity (relative to DMSO controls) ([2]; 500 nM): 87.10%; % Enzyme Activity (relative to DMSO controls) ([3]; 500 nM): 103.58%; % Enzyme Activity (relative to DMSO controls) ([4]; 500 nM): 70.47%; % Enzyme Activity (relative to DMSO controls) ([5]; 500 nM): 107.39%; % Enzyme Activity (relative to DMSO controls) ([6]; 500 nM): 103.16%; % Enzyme Activity (relative to DMSO controls) ([7]; 500 nM): 102.39%; % Enzyme Activity (relative to DMSO controls) ([8]; 500 nM): 94.61%; % Enzyme Activity (relative to DMSO controls) ([9]; 500 nM): 88.35%; % Enzyme Activity (relative to DMSO controls) ([10]; 500 nM): 152.58%; remaining activity at 0.5 µM ([10]; 500 nM): 157%; % Enzyme Activity (relative to DMSO controls) ([11]; 500 nM): 101.37%; remaining activity at 0.5 µM ([11]; 500 nM): 104%
